Reference: patent US9481648B2, “Kinase inhibitors” (Respivert Limited, priority 2013, dated 2016)

What was measured:
p38 MAPKα (MAPK14) = p38 MAPKα (MAPK14) (Homo sapiens (Human), UniProt Q16539); test: p38 MAPKα enzyme inhibition (FRET, Z-LYTE; Method 2); format: biochemical
Method: (§1) The enzyme inhibitory activities of compounds disclosed herein are determined by FRET using synthetic peptides labelled with both donor and acceptor fluorophores (Z-LYTE, Invitrogen Ltd., Paisley, UK).
The inhibitory activities of test compounds against the p38 MAPKα isoform (MAPK14: Invitrogen) are evaluated indirectly by determining the level of activation\phosphorylation of the down-stream molecule, MAPKAP-K2. The p38 MAPKα protein (80 ng/mL, 2.5 μL) is mixed with the test compound (2.5 μL of either 4 μg/mL, 0.4 μg/mL, 0.04 μg/mL or 0.004 μg/mL) for 2 hr at RT. […] The mixture is incubated for 1 hr at RT. Development reagent (protease, 5 μL) is added for 1 hr prior to detection in a fluorescence microplate reader (Vanoskan® Flash, ThermoFisher Scientific).
(§2) In all cases, the site-specific protease cleaves non-phosphorylated peptide only and eliminates the FRET signal. Phosphorylation levels of each reaction are calculated using the ratio of coumarin emission (donor) over fluorescein emission (acceptor), for which high ratios indicate high phosphorylation and low ratios indicate low phosphorylation levels.

c-Src = c-Src (Homo sapiens (Human), UniProt P12931); test: c-Src enzyme inhibition (FRET, Z-LYTE); format: biochemical
Method: as §1
(§3) The relevant enzyme (3000 ng/mL or 2000 ng/mL respectively, 2.5 μL) is incubated with the test compound (either 1 μg/mL, 0.1 μg/mL, 0.01 μg/mL, or 0.001 μg/mL, 2.5 μL each) for 2 hr at RT. The FRET peptides (8 μM, 2.5 μL), and appropriate ATP solutions (2.5 μL, 800 μM for c-Src, and 60 μM ATP for Syk) are then added to the enzymes/compound mixtures and the mixture incubated for 1 hr. Development reagent (protease, 5 μL) is added for 1 hr prior to detection in a fluorescence microplate reader (Varioskan® Flash, ThermoFisher Scientific).
as §2

Syk = Syk (Homo sapiens (Human), UniProt P43405); test: Syk enzyme inhibition (FRET, Z-LYTE); format: biochemical
Method: as §1, §3, §2

GSK 3α = GSK 3α (Homo sapiens (Human), UniProt P49840); test: GSK 3α enzyme inhibition (FRET, Z-LYTE; Method 2); format: biochemical; conditions: read-out: IC50 Values for Enzyme Inhibition GSK3α
In short: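 Phosphorylation was taken from the donor (coumarin) to acceptor (fluorescein) emission ratio after 1 h protease development, which cleaves only unphosphorylated peptide. Before that, peptide (8 μM stock) plus ATP (40 μM stock) reacted 1 h. This followed a 105 min RT preincubation of GSK3-α with compound stocks of 10–0.01 μg/mL.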

[1] = tested on: β-catenin in d-U937 cells; test: Accumulation of β catenin in d-U937 cells (assay m); format: cell-based, human
Method: U937 cells, a human monocytic cell line, are differentiated into macrophage-type cells by incubation with PMA (100 ng/mL) for between 48 to 72 hr. The cells are then incubated with either final concentrations of test compound or vehicle for 18 hr. The induction of β-catenin by the test compounds is stopped by replacing the media with 4% formaldehyde solution. Endogenous […] is neutralised by incubating with quenching buffer (100 μL, 0.1% sodium azide, 1% H2O2 in PBS with 0.05% Tween-20) for 20 min. The cells are washed with washing buffer (200 μL; PBS containing 0.05% Tween-20) and incubated with blocking solution (200 μL; 5% milk in PBS) for 1 hr, re-washed with washing buffer (200 μL) and then incubated overnight with anti-β-catenin antibody solution (50 μL) in 1% BSA/PBS (BD, Oxford, UK).
After washing with washing buffer (3×200 μL; PBS containing 0.05% Tween-20), cells are incubated with a HRP-conjugated secondary antibody solution (100 μL) in 1% BSA/PBS (Dako, Cambridge, UK) and the resultant signal is determined colourimetrically (OD: 450 nm with a reference wavelength of 655 nm) using TMB substrate (50 μL; R&D Systems, Abingdon, UK). This reaction is stopped by addition of 1N H2SO4 solution (50 μL). Cells are then washed with washing buffer and 2% crystal violet solution (50 μL) is applied for 30 min. After washing with washing buffer (3×200 μL), 1% SDS (100 μL) is added to each well and the plates are shaken lightly for 1 hr prior to measuring the absorbance at 595 nm (Varioskan® Flash, Thermo-Fisher Scientific).
The measured OD450-655 readings are corrected for cell number by dividing the OD450-655 by the OD595 readings.

Chain of p38 MAPKα (MAPK14) (Q16539 whole entry): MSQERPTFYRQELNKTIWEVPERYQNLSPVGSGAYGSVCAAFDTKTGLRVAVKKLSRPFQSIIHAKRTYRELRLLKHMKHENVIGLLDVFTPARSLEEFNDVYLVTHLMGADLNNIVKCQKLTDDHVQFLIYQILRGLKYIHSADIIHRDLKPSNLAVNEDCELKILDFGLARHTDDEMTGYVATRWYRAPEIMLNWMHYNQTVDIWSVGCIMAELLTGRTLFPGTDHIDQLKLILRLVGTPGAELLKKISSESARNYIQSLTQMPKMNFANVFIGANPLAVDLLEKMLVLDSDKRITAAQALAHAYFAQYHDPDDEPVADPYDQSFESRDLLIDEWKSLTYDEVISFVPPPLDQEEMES
Chain of GSK 3α (P49840 whole entry): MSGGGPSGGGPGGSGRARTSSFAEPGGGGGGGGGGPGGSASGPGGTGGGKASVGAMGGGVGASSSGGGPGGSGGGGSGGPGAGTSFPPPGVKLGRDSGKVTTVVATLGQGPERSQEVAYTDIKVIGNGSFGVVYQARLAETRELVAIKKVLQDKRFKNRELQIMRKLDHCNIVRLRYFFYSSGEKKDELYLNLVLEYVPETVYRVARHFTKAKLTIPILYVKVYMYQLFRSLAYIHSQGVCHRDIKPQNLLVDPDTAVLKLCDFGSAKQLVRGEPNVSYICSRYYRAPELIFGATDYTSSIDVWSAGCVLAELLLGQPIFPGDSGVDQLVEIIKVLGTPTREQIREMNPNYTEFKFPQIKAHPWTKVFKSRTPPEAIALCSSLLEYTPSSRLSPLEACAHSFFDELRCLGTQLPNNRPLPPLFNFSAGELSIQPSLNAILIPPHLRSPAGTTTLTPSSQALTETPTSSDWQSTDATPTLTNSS
Chain of c-Src (P12931 whole entry, looked up): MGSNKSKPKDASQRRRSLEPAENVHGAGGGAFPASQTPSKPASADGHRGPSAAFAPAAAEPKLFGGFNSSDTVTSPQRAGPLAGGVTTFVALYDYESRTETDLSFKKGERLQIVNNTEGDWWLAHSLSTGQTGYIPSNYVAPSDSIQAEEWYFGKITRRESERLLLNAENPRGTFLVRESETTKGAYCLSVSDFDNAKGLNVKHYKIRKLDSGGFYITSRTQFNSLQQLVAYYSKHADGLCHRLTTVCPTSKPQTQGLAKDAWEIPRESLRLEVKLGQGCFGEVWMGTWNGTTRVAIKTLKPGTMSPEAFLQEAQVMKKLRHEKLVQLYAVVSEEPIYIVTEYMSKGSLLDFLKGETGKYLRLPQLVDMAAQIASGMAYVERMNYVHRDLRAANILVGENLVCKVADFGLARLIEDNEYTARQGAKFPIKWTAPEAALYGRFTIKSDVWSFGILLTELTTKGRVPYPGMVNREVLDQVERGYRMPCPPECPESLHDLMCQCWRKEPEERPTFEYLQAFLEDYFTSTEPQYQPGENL

Row | IC50 (p38 MAPKα (MAPK14)) [nM] | IC50 (c-Src) [nM] | IC50 (Syk) [nM] | IC50 (GSK 3α) [nM] | SMILES | % β-catenin induction ([1]; test compound 1 μg/mL) [%] | % β-catenin induction ([1]; test compound 5 μg/mL) [%] | % β-catenin induction ([1]; test compound 10 μg/mL) [%]
1 | – | – | 147 | 733 | CNC(=O)c1cc(NC(=O)Nc2ccc(Oc3ccnc(Nc4cc(OC)cc(OCCOCCOCCOC)c4)n3)c3ccccc23)cc(C(C)(C)C)c1 [Example 23, 3-(tert-Butyl)-5-(3-(4-((2-((3-methoxy-5-(2-(2-(2-methoxyethoxy)ethoxy)ethoxy)phenyl)-amino)pyrimidin-4-yl)oxy)naphthalen-1-yl)ureido)-N-methylbenzamide] | −4 | 10 | 9
2 | 142 | 22 | 1160 | 8330 | COCCOCCOCCOc1cc(Nc2nccc(Oc3ccc(NC(=O)Nc4cc(C(C)(C)C)cc(NS(C)(=O)=O)c4-c4ccccc4)c4ccccc34)n2)cc(OC)c1 [83(a), N-(4-(tert-butyl)-6-(3-(4-((2-((3-methoxy-5-(2-(2-(2-methoxyethoxy)ethoxy)ethoxy)phenyl)-amino)pyrimidin-4-yl)oxy)naphthalen-1-yl)ureido)-[1,1′-biphenyl]-2-yl)methane-sulfonamide] | – | – | –
3 | – | 206 | 1160 | 2630 | COCCOCCOCCS(=O)(=O)c1cc(Nc2cc(Oc3ccc(NC(=O)Nc4cc(C(C)(C)C)cc(NS(C)(=O)=O)c4OC)c4ccccc34)ccn2)cc(OC)c1 [Example 85(y), 1-[5-tert-Butyl-3-(methanesulfonamido)-2-methoxyphenyl]-3-[4-[2-[3-methoxy-5-[2-[2-(2-methoxyethoxy)ethoxy]ethylsulfonyl]anilino]pyridin-4-yl]oxy-1-naphthyl]urea] | – | – | –
4 | 332 | 67 | 86 | 3970 | COCCOCCOCCOc1cc(Nc2nccc(Oc3ccc(NC(=O)Nc4cc(C(C)(C)C)cc(-c5cnn[nH]5)c4OC)c4ccccc34)n2)cc(OC)c1 [Example 70, 1-(5-(tert-Butyl)-2-methoxy-3-(1H-1,2,3-triazol-5-yl)phenyl)-3-(4-((2-((3-methoxy-5-(2-(2-(2-methoxyethoxy)ethoxy)ethoxy)phenyl)amino)pyrimidin-4-yl)oxy)naphthalen-1-yl)urea] | – | – | –
5 | – | – | – | 738 | COc1cc(Nc2nccc(Oc3ccc(NC(=O)Nc4cc(C(C)(C)C)cc(NS(C)(=O)=O)c4OC)c4ccccc34)n2)cc(OCCOCCOCCO)c1 [83(c), N-(5-(tert-butyl)-3-(3-(4-((2-((3-(2-(2-(2-hydroxyethoxy)ethoxy)ethoxy)-5-methoxyphenyl)-amino)pyrimidin-4-yl)oxy)naphthalen-1-yl)ureido)-2-methoxyphenyl)methanesulfonamide] | 4 | 31 | 33
6 | – | – | 237 | 905 | COc1cc(Nc2nccc(Oc3ccc(NC(=O)Nc4cc(C(C)(C)C)cc(NS(C)(=O)=O)c4OC)c4ccccc34)n2)cc(OCCOCCOCCN(C)C)c1 [Example 15, N-(5-(tert-Butyl)-3-(3-(4-((2-((3-(2-(2-(2-(dimethylamino)ethoxy)ethoxy)ethoxy)-5-methoxyphenyl)amino)pyrimidin-4-yl)oxy)naphthalen-1-yl)ureido)-2-methoxyphenyl)-methanesulfonamide] | −2 | −6 | −17
7 | 275 | – | – | 12600 | COc1c(NC(=O)Nc2ccc(Oc3ccnc(Nc4ccccc4)c3)c3ccccc23)cc(C(C)(C)C)cc1C(=O)NC1CCOCC1 [84(a), 3-[[4-[(2-Anilino-4-pyridyl)oxy]-1-naphthyl]carbamoylamino]-5-tert-butyl-2-methoxy-N-tetrahydropyran-4-yl-benzamide] | – | – | –
8 | 18 | 968 | – | 1250 | COc1c(NC(=O)Nc2ccc(Oc3ccnc(NCc4ccccn4)c3)c3ccccc23)cc(C(C)(C)C)cc1C(=O)NC1COC1 [Example 80, 5-(tert-Butyl)-2-methoxy-N-(oxetan-3-yl)-3-(3-(4-((2-((pyridin-2-ylmethyl)amino)pyridin-4-yl)oxy)naphthalen-1-yl)ureido)benzamide] | 5 | 38 | 47
9 | 37 | 45 | – | 12700 | C#Cc1cc(Nc2nccc(Oc3ccc(NC(=O)Nc4cc(F)cc(N5CCOCC5)c4)c4ccccc34)n2)cc(C(=O)NCCN2CCOCC2)c1 [Example 2, 3-Ethynv-5-((4-((4-(3-(3-fluoro-5-morpholinophenyl)ureido)naphthalen-1-yl)oxy)-pyrimidin-2-yl)amino)-N-(2-morpholinoethyl)benzamide] | −6 | −4 | –
10 | 38 | 29 | 656 | 6740 | COc1cc(Nc2cc(Oc3ccc(NC(=O)Nc4cc(C(C)(C)C)cc(NS(C)(=O)=O)c4OC)c4ccccc34)ccn2)cc(C(=O)NCC(=O)N2CCOCC2)c1 [Example 85(a), 3-[[4-[[4-[[5-tert-Butyl-3-(methanesulfonamido)-2-methoxyphenyl]-carbamoylamino]-1-naphthyl]oxy]-2-pyridyl]amino]-5-methoxy-N-(2-morvholino-2-oxo-ethyl)benzamide] | – | – | –

Row | SMILES | IC50 (p38 MAPKα (MAPK14)) [nM] | IC50 (c-Src) [nM] | IC50 (Syk) [nM] | IC50 (GSK 3α) [nM] | % β-catenin induction ([1]; test compound 1 μg/mL) [%] | % β-catenin induction ([1]; test compound 5 μg/mL) [%] | % β-catenin induction ([1]; test compound 10 μg/mL) [%]
11 | COCCOCCOCCOc1cc(Nc2nccc(Oc3ccc(NC(=O)Nc4cc(C(C)(C)C)cc(C(=O)NCCO)c4OC)c4ccccc34)n2)cc(OC)c1 [Example 35, 5-(tert-Butyl)-N-(2-hydroxyethyl)-2-methoxy-3-(3-(4-((2-((3-methoxy-5-(2-(2-(2-methoxy-ethoxy)ethoxy)ethoxy)phenyl)amino)pyrimidin-4-yl)oxy)naphthalen-1-yl)ureido)-benzamide] | 120 | 13 | 48 | 597 | – | – | –
12 | COCCOCCOCCOc1cc(Nc2nccc(Oc3ccc(NC(=O)Nc4cc(C(C)(C)C)cc(C(=O)NC5CC5)c4OC)c4ccccc34)n2)cc(OC)c1 [Example 33, 5-(tert-Butyl)-N-cyclopropyl-2-methoxy-3-(3-(4-((2-((3-methoxy-5-(2-(2-(2-methoxy-ethoxy)ethoxy)ethoxy)phenyl)amino)pyrimidin-4-yl)oxy)naphthalen-1-yl)ureido)-benzamide] | – | 11 | 28 | 828 | – | – | –
13 | C#Cc1cc(Nc2nccc(Oc3ccc(NC(=O)Nc4cc(C(C)(C)C)cc(C(=O)NC)c4OC)c4ccccc34)n2)cc(C(=O)NCCN2CCOCC2)c1 [Example 9] | – | 8 | 27 | 1630 | 32 | 48 | 67
14 | COCCOCCOCCOc1cc(Nc2nccc(Oc3ccc(NC(=O)Nc4cc(C(C)(C)C)cc(C(=O)NCC(=O)OC)c4OC)c4ccccc34)n2)cc(OC)c1 [Example 37, Methyl 2-(5-(tert-butyl)-2-methoxy-3-(3-(4-((2-((3-methoxy-5-(2-(2-(2-methoxyethoxy)-ethoxy)ethoxy)phenyl)amino)pyrimidin-4-yl)oxy)naphthalen-1-yl)ureido)benzamido)-acetate] | – | 12 | 43 | 1520 | 4 | 38 | 46
